Experimental data: patent US10577406B2, “FKBP-L polypeptides and uses in angiogenesis-mediated disorders” (ALMAC DISCOVERY LIMITED, priority 2006, dated 2020)
Ends that are not written are not given here.

Assays:
[1] = tested on: DU145 human prostate tumor xenograft; assay: prostate cancer xenograft model, intratumoral injection of plasmid complexes; type: in vivo, severe combined immunodeficient mice; conditions: twice weekly
Method: Du145 (prostate carcinoma) cells were obtained from Cancer Research UK and cultured in RPMI 1640 medium (Invitrogen) supplemented with 10% foetal calf serum. All cell lines were grown as monolayers, incubated at 37° C. under 5% CO2.
The FKBP-L/pcDNA3.1 plasmid was constructed by excision of the FKBPL cDNA using BamH1 (polynucleotide SEQ ID NO:31) from pUC18 and then directional ligation of FKBP-L into the BamHI restriction site of pcDNA3.1 (Invitrogen) as described in Example 1. The endostatin plasmid (for use as a postive anti-angiogenic control) hEndo XV/pcDNA3.1, was constructed by digesting the pBLAST hENDO XV plasmid (InVivoGen) with Hpa1 (Promega) and EcoV (Invitrogen) to release the hEndo XV insert. The hEndo XV insert was ligated directionally into the ECoRV restriction site of pcDNA3.1 (Invitrogen).
Nineteen (19) male immunocompromised (severe combined immunodeficient) mice were used (Harlan). The mice were aclimatized and caged in groups of 5 or less in a barrier care facility. Du145 (prostate carcinoma) cells were cultured as previously described. Subconfluent cells were harvested and the cell concentration was adjusted to 5×10^7 cells/ml in PBS. The dorsum of each mouse was shaved. […] The tumors were measured before each treatment. Tumor volume was calculated as: 4/3 πr^3 (where r=½ GMP and GMP=^3√{square root over (Length×Breadth×Height)}).

HMEC-1 [2] = assay: in vitro migration assay (wound closure / wound scrape), recombinant protein or peptides added to medium; type: cell-based, Human; conditions: wound scrape
Method: (§1) The in vitro migration assay used in these studies is a modified version of the method described by Ashton et al (1999). HMEC-1 were plated into individual chambers on a glass slide and grown to 90% confluence overnight. The medium was removed and the monolayer wounded. The monolayer was re-supplemented with fresh medium and the required volume of recombinant full length his-tagged FKBP-L protein (SEQ ID NO: 1) was added to give the required final concentration.
The monolayers were incubated for 7 hours after exposure to recombinant FKBP-L protein and then fixed in 4% PBS buffered paraformaldehyde. The extent of “wound” closure was blindly assessed microscopically by an independent investigator and quantified using a calibrated eyepiece graticule (1 mm/100 μm graduation) at 20× magnification (Olympus BX 50). The extent of closure in the FKBP-L treated slides was compared to time matched sham treated controls and the % inhibition of wound closure compared to time matched controls calculated.
The following studies were performed to determine the effect of a full length His-tagged recombinant FKBP-L protein on the wound closure assay measured as a function of time. Again, the in vitro migration assay used in these studies is a modified version of the method described by Ashton et al (1999). HMEC-1 were plated into individual chambers on a glass slide and grown to 90% confluence overnight. The medium was removed and the monolayer wounded. The monolayer was re-supplemented with fresh medium and the required volume of full length his-tagged recombinant FKBP-L (i.e., SEQ ID NO: 1) added to give the required final concentration 750 ngml^−1.
Slides were removed at fixed time points until complete closure of the wound, then fixed in 4% PBS buffered paraformaldehyde. The extent of “wound” closure was blindly assessed microscopically by an independent investigator and quantified using a calibrated eyepiece graticule (1 mm/100 μm graduation) at 20× magnification (Olympus BX 50). The extent of closure in the FKBP-L treated slides was compared to time matched sham treated controls and the % inhibition of wound closure compared to time matched controls calculated.
as §1, with “al. (1999) see supra.” for “al (1999).”, “the following peptides” for “recombinant full length his-tagged FKBP-L protein (SEQ ID NO: 1)”, “achieve a dose range from 10^−14-10^−6 M.” for “give the required final concentration.”
The monolayers were incubated for 7 h and then fixed in 4% PBS buffered paraformaldehyde. The extent of “wound” closure was blindly assessed microscopically by an independent investigator and quantified using a calibrated eyepiece graticule (1 mm/100 μm graduation) at 20× magnification (Olympus BX 50). The extent of closure in the FKBP-L treated slides was compared to time matched sham treated controls and the % inhibition of wound closure compared to time matched controls calculated.
The in vitro migration assay used in these studies is a modified version of the method described by Ashton et al. (1999) see supra. HMEC-1 were plated into individual chambers on a glass slide and grown to 90% confluence overnight. The medium was removed and the monolayers wounded. The monolayer was re-supplemented with fresh medium and the required volume of each peptide (i.e., peptides 1-17, SEQ ID NOS: 12-28; Table 4 below) was added to give the required final concentration (10^−14-10^−6 M).
The monolayers were incubated for 24 h and then fixed in 4% PBS buffered paraformaldehyde. The extent of “wound” closure was blindly assessed microscopically by an independent investigator and quantified using a calibrated eyepiece graticule (1 mm/100 μm graduation) at 20× magnification (Olympus BX 50). […]

L132 cells = assay: cDNA microarray analysis of gene expression after FKBP-L antisense; type: cell-based; conditions: 8 h after exposure, vs lipofectin only
Method: Total RNA was isolated from L132 cells, 8 h after exposure to FKBP-L antisense (FKBP-L antisense: 5′ ATG GCC AGG CTC CCG CTC 3′) (SEQ ID NO: 40) or lipofectin only as a control. Poly A+mRNA was extracted from total RNA samples using the Qiagen Oligotex kit (Qiagen, UK), according to the manufacturer's instructions. These mRNA samples (800 ng per sample) were sent to Incyte Genomics, USA where a UniGEM 2.0 microarray analysis was conducted.
Incyte's Lifearray chips enable the interrogation of up to 10,000 genes simultaneously, resulting in the comparison of gene expression levels in two different samples. Briefly, a standard reverse transcription reaction was carried out to convert both mRNA samples to cyanine-dye-labelled cDNA. mRNA from L132 cells treated with FKBP-L antisense oligonucleotides after 8 h was used to generate a Cyanine 3 (green) labelled probe and mRNA from L132 cells treated with lipofectin only after 8 hours was used to produce a Cyanine 5 (red) labelled probe. The two fluorescent probe samples were simultaneously applied to a single microarray chip containing numerous cDNA probes immobilised on a solid support in specific locations, where they competitively reacted with the arrayed cDNA molecules. Following incubation, the microarray was rinsed in a series of baths to ensure the removal of any unhybridised sample. The microarray was then captured as an image that was acquired using a scanner for fluorescent signal detection. This scanner generated data on the intensity of each spot by excitation of the fluorochromes on the array. Each element of the chip was scanned for the Cy3 (green) and then the Cy5 (red) fluorescent label to create electronic images for both dye channels. The final array images were analysed using the Incyte GEMTools software package.

HMEC-1 cells = assay: MTT assay of cell viability/proliferation; conditions: 24mer 10^−5-10^−10M, 1-57mer 10^−9M and 10^−10M; 24 hours and 48 hours
Method: An MTT assay was used to measure cell viability/proliferation.
An MTT assay was used to measure cell viability and/or proliferation. Briefly, HMEC-1 cells were seeded (2.5×10^3) in 96 well plates and allowed to attach for 5 h. The cells were treated with FKBP-L 24mer (SEQ ID NO: 10) (10^−5-10^−10M), 1-57mer (SEQ ID NO: 6) (10^−9M and 10^−10M) or medium (control).
Post incubation the cells were exposed to a 5 mgml^−1 solution of 3-(-4,5-dimethylthiazol-2-yl) 2,5 diphenyl tetrazolium (MTT) for 4 h. The cells were aspirated and 200 μl of DMSO added to reduce the salt and induce a colour change.

HMEC-1 [3] = type: cell-based, Human; conditions: 18 h
Method: (§2) The in vitro tubule formation assay used in these studies is a modified version of the method described by Ashton et al (1999). In brief, assays were conducted using BD BioCoat™ Matrigel™ Matrix Thin Layer 24-well Multiwell Plates (BD Discovery Labware, Oxford, UK). The Matrigel™ was rehydrated with 500 μl MCDB-131 serum free medium and incubated at 37° C. for 30 minutes. Excess medium was removed and HMEC-1 were seeded at a density of 1×10^5 and the plates incubated at 37° C. under 5% CO2/95% air for 1 hour.
(§3) Increasing concentrations of the recombinant FKBP-L protein (SEQ ID NO: 1) were added to each individual well in triplicate (250-1000 ngml^−1) and the plate was incubated for a further 18 hours. The degree of tubule formation between adjacent HMEC-1 cells was assessed in each well in five fields of view, by counting the number of cell to cell contacts between different HMEC-1 cells in the designated area. An independent investigator assessed each well and the FKBP-L treated wells were compared to sham treated controls.
as §2, with “al.” for “al”, “min.” for “minutes.”, “h. Increasing concentrations of FKBP-L 24mer (SEQ ID NO: 10) and 1-57mer (SEQ ID NO: 6) from 10^−14-10^−6 M were used.” for “hour.”
as §3, with “The” for “Increasing concentrations of the recombinant FKBP-L protein (SEQ ID NO: 1) were added to each individual well in triplicate (250-1000 ngml^−1) and the”, “h.” for “hours.”

rat aortic ring = type: cell-based, Male Wistar rats
Method: Male Wistar rats were euthanised and the thoracic aorta was aseptically removed and sectioned into 1 cm thick rings. The rings were washed ten times in sterile medium to remove any bacteria and embedded into Matrigel on 24 well plates. The wells were supplemented with 2 ml of medium and increasing concentrations of full-length His-tagged recombinant FKBP-L protein (SEQ ID 1). The plate was incubated for 8 days and post incubation the Matrigel and rings were fixed in 4% PBS buffered paraformaldehyde and stored in PBS. The extent of vessel development was blindly assessed microscopically by an independent investigator and quantified using a calibrated eyepiece graticule (1 mm/100 μm graduation) at 20× magnification (Olympus BX 50). The extent of vessel length, maximum vessel length and number of vessels in each field of view was measured and compared to time matched sham controls and the percent (%) inhibition calculated. Male Wistar rats were euthanised and the thoracic aorta was aseptically removed and sectioned into 1 cm thick rings. The rings were washed ten times in sterile medium to remove any bacteria and embedded into Matrigel on 24 well plates. The wells were supplemented with 2 ml of medium and increasing concentrations of FKBP-L 24mer (SEQ ID NO: 10) and FKBP-L 1-57mer (SEQ ID NO: 6) and recombinant FKBP-L (SEQ ID NO:1). The plate was blindly assessed by an independent investigator and quantified using a calibrated eyepiece graticule (1 mm/100 μm graduation) at 20× magnification (Olympus BX 50). The extent of vessel length, maximum vessel length and number of vessels in each field of view was measured and compared to time matched sham controls and the % inhibition calculated. In order to determine whether the FKBP-L 24mer exerted a permanent or static effect on endothelial cell sprouting the rat aortic ring assay was used. Male Wistar rats were euthanised and the thoracic aorta was aseptically removed and sectioned into 1 cm thick rings. The rings were washed ten times in sterile medium to remove any bacteria and embedded into Matrigel on 24 well plates. The wells were supplemented with 2 ml of medium. The plates were incubated for up to 15 days. Each day the Matrigel rings were photographed and returned to their incubator. Two further experiments were carried out: (A) addition of FKBP-L 24mer to the medium after the vessels had grown for seven days; and (B) addition of FKBP-L 24mer to the medium at the initial embedding stage, with subsequent removal after seven days and replacement with fresh medium for a further seven days. The extent of vessel development was quantified using a calibrated eyepiece graticule (1 mm/100 μm graduation) at 20× magnification (Olympus BX 50), and measured electronically using Lucia imaging software. Vessel length was measured and compared to time matched sham controls and the percent (%) inhibition calculated.

endostatin
tumor appearance [1]: evidence of a necrotic center

RQQPRDPPTETLELEVSPD-OH (listed as Homo sapiens) [Pep 12]
activity relative to the FKBP-L 24mer (HMEC-1 [2]; 24 h): about the same as the FKBP-L 24mer

5′ ATG GCC AGG CTC CCG CTC 3′ (antisense ATGGCCAGGCTCCCGCTC; listed as DNA, chemistry not given here; listed as Homo sapiens) [FKBP-L anti-sense oligonucleotides]
Fold Increase (↑) or Decrease (↓): Annexin 2 (L132 cells; decrease ↓): ↓ 1.6 Fold | Fold Increase (↑) or Decrease (↓): CYR61 (L132 cells; decrease ↓): ↓ 2.4 Fold | Fold Increase (↑) or Decrease (↓): Tubulin α (L132 cells; decrease ↓): ↓ 1.5 Fold | Fold Increase (↑) or Decrease (↓): Tubulin β (L132 cells; decrease ↓): ↓ 1.5 Fold | Fold Increase (↑) or Decrease (↓): Tubulin γ (L132 cells; decrease ↓): ↓ 1.6 Fold | Fold Increase (↑) or Decrease (↓): MMP-like 1 (L132 cells; increase ↑): ↑ 1.5 Fold | Fold Increase (↑) or Decrease (↓): Microtubule associated protein 1B (L132 cells; increase ↑): ↑ 1.6 Fold | Fold Increase (↑) or Decrease (↓): PI3K (L132 cells; increase ↑): ↑ 3.1 Fold | Fold Increase (↑) or Decrease (↓): ROCK (L132 cells; increase ↑): ↑ 1.6 Fold | Fold Increase (↑) or Decrease (↓): Rho GTPase activating protein- (L132 cells; increase ↑): ↑ 2.0 Fold | Fold Increase (↑) or Decrease (↓): oligophrenin 1 (L132 cells; increase ↑): ↑ 1.7 Fold

METPPVNTIGEKDTSQPQQEWEKNLRENLDSVIQIRQQPRDPPTETLELEVSPDPAS [FKBP-L 1-57mer]
effect on proliferation of HMEC-1 cells compared to time-matched controls (HMEC-1 cells): neither of the peptides had any significant effect | EC50 (HMEC-1 [3]): 0.0007 nM | potency compared with the full length recombinant protein on a mole/mole basis (HMEC-1 [2]; 7 h): increased potency | IC50 (rat aortic ring): 0.53 nM
